# Measured values from ChEMBL document CHEMBL5726454, “Protein tyrosine kinase modulators and methods of use” (2017).
# pIC50: −log10 of the molar value.
# Biological target: ALK tyrosine kinase receptor (Homo sapiens, UniProt Q9UM73)
# Experiment: 2.5 uL-4x Test Compound or 100 nL 100x plus 2.4 uL kinase buffer; 2. 5 uL-2x Peptide/Kinase Mixture; 3. 2.5 uL-4xATP Solution; 4. 30-second plate shake; 5. 60-minute Kinase Reaction incubation at room temperature; 6. 5 uL-Development Reagent Solution; 7. 30-second plate shake; 8. 60-minute Development Reaction incubation at room temperature; 9. […] After the 1 hour Kinase Reaction incubation, 5 uL of a 1:256 dilution of Development Reagent B is added.
# Sequence of ALK tyrosine kinase receptor (Q9UM73 whole entry): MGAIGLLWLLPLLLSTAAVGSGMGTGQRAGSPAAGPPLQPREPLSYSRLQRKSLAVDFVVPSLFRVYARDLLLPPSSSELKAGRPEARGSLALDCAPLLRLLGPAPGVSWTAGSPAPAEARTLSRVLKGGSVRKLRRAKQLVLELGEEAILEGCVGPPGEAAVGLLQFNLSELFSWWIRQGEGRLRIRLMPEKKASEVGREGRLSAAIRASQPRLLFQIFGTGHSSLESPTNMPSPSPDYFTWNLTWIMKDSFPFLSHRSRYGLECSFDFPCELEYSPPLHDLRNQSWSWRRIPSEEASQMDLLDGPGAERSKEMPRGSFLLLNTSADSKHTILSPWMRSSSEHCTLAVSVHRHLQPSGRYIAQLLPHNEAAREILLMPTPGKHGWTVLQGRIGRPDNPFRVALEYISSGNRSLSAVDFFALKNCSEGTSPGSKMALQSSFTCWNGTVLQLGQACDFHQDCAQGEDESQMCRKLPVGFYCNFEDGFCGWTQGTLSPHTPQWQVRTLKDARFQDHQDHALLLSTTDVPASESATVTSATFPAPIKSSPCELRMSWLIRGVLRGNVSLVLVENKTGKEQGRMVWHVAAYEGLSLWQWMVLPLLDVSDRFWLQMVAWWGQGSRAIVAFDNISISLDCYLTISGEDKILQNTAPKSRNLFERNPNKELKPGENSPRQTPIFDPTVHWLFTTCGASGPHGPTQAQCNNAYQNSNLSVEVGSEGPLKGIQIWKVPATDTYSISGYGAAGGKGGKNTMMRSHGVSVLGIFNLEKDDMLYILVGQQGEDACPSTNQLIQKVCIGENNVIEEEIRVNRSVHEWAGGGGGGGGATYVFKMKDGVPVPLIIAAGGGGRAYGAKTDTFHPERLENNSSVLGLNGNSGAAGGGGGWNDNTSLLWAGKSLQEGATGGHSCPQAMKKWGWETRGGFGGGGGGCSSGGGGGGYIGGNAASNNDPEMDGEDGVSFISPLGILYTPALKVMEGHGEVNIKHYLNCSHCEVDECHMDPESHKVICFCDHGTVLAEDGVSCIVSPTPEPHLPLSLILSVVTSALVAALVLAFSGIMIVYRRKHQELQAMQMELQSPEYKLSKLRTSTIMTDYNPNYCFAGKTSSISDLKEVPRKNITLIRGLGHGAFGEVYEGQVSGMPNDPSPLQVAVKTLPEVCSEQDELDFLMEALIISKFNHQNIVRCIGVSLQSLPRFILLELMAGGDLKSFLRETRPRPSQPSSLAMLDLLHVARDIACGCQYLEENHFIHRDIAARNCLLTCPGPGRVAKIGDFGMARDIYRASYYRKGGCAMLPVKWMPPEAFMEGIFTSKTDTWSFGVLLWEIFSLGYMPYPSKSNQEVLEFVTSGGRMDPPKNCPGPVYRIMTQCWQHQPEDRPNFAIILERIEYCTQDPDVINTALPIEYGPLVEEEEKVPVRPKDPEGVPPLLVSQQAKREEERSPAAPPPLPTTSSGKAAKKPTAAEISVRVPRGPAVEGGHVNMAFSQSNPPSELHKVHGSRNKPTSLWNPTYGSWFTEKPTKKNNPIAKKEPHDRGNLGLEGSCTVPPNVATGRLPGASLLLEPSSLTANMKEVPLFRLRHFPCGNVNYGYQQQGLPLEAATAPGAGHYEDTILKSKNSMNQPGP
smiles,measurement,value
COc1cc(N2CCC(N(C)C)CC2)ccc1Nc1ncc(Cl)c(Nc2ccccc2C(=O)C(N)=O)n1,pIC50,7.55
